Structures are written as SMILES. pIC50: −log10 of the molar value.

The target of this test is T1, C5aR (Homo sapiens, UniProt P21730).
T1 construct: U937 cells are a monocytic cell line which express C5aR; host or cells: U937 cells (cAMP treated) or isolated neutrophils
T1 sequence (P21730 1-350): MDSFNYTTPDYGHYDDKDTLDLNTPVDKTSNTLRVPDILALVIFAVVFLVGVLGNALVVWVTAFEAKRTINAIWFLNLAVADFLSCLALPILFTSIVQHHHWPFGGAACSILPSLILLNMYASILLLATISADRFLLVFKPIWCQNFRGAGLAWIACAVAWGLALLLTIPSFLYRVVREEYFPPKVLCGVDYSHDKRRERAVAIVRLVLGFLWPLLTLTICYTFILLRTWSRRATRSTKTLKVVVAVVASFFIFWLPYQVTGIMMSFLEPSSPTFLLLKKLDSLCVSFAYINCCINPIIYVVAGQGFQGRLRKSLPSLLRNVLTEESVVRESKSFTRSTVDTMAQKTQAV
The test can be described thus: chemotaxis assay (C5aR mediated migration). Type of test: cell-based. To be noted: migration of U937 or neutrophil cells toward C5a (0.03 nM), 1.5 hours at 37° C., read-out: Mig IC50. Summed up:
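Migration of cAMP-treated U937 cells (0.5 mM overnight), or of human or murine neutrophils, toward C5a was measured through 5 μm polycarbonate filters in HBSS with 1% FBS. SDF-1α served as a specificity control. After 1.5 h at 37 °C, lower-chamber cells were counted directly or by CyQuant.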
The pIC50 is −log10 of the IC50, conventionally taken in molar units. In the case of `CCc1cccc(CC)c1-n1nc2c(c1-c1ccc(Cl)c3[nH]ccc13)CN(c1ncc(C(C)C)cn1)CC2` [Example 1.164], the negative logarithm of the IC50 (pIC50) was above 8.30. As for `CCc1cccc(CC)c1-n1nc2c(c1-c1ccc(Cl)c3[nH]ccc13)CN(c1ncc(C)cn1)CC2` [Example 1.156], the pIC50 is above 8.30.

As to `CCc1cccc(CC)c1-n1nc2c(c1-c1cc(F)c(OC)c3[nH]ccc13)CN(c1ncc(OC(C)C)cn1)CC2` [Example 1.054], the pIC50 was above 8.30. Under `CCc1cccc(CC)c1-n1nc2c(c1-c1ccc(Cl)c3[nH]cnc13)CN(c1ncc(C(F)(F)F)cn1)CC2` [Example 1.069] stands above 8.30; under `CCc1cccc(CC)c1-n1nc2c(c1-c1c(F)cc(F)c3[nH]ccc13)CN(c1ncc(C(F)(F)F)cc1F)CC2` [Example 1.182], 7.30 to 8.30; under `CCc1cccc(CC)c1-n1nc2c(c1-c1cccc3[nH]ccc13)CN(c1ncc(C(F)(F)F)cn1)CC2` [Example 1.040], 7.30 to 8.30. To `FC(F)(F)c1ccccc1CN1CCc2nn(-c3c(Cl)cccc3Cl)c(-c3ccc4[nH]ccc4c3)c2C1` [Example 1.219] belongs 7.30 to 8.30; to `CCc1cccc(CC)c1-n1nc2c(c1-c1cc(F)c(OC)c3[nH]ccc13)CN(c1ncc(C(F)(F)F)cc1F)CC2` [Example 1.061], above 8.30; to `CCc1cccc(CC)c1-n1nc2c(c1-c1ccc3[nH]ccc3c1)CN(c1ncc(C(F)(F)F)cn1)CC2` [Example 1.039], 7.30 to 8.30. Take `Cc1cccc(OCC(C)C)c1-n1nc2c(c1-c1ccc3[nH]ccc3c1)CN(c1nc(Cl)ns1)CC2` [Example 1.214]: the pIC50 was 7.30 to 8.30. Under `Cc1cccc(C)c1-n1nc2c(c1-c1cc(C)c3[nH]ccc3c1)CN(c1ncc(Cl)cc1Cl)CC2` [Example 1.189] stands 6.30 to 7.30. Under `CCc1cccc(CC)c1-n1nc2c(c1-c1ccc(C)c3[nH]cc(Cl)c13)CN(c1ncc(C(F)(F)F)cc1F)CC2` [Example 1.170] stands above 8.30; under `CCc1cccc(CC)c1-n1nc2c(c1-c1cc(F)c(OC)c3[nH]c(CO)nc13)CN(c1ncc(C(F)(F)F)cn1)CC2` [Example 1.028], below 6.30; under `Cc1cccc(OCC(C)C)c1-n1nc2c(c1-c1ccc3cc[nH]c3c1)CN(c1ncc(C(F)(F)F)cc1F)CC2` [Example 1.228], 6.30 to 7.30. For `Cc1cccc(OCC(C)C)c1-n1nc2c(c1-c1cccc3[nH]ccc13)CN(c1ncc(C(F)(F)F)cc1F)CC2` [Example 1.229], the pIC50 was 7.30 to 8.30. On to `CCc1cccc(CC)c1-n1nc2c(c1-c1cc(F)c(F)c3[nH]ccc13)CN(c1ncc(C(F)(F)F)cc1F)CC2` [Example 1.120], for which the pIC50 was 7.30 to 8.30. In the case of `CCc1cccc(CC)c1-n1nc2c(c1-c1ccc(Cl)c3[nH]ccc13)CN(c1nccc(OC)n1)CC2` [Example 1.113], the pIC50 is above 8.30.

For the compound `CCc1cccc(CC)c1-n1nc2c(c1-c1ccc3[nH]cnc3c1Cl)CN(c1ncc(C(F)(F)F)cn1)CC2` [Example 1.009], the pIC50 was 6.30 to 7.30.

Consider `CCc1cccc(CC)c1-n1nc2c(c1-c1ccc(Cl)c3[nH]ccc13)CN(c1cnc(C3CC3)cn1)CC2` [Example 1.067], for which the pIC50 is 7.30 to 8.30.

With `CCc1cccc(CC)c1-n1nc2c(c1-c1cc3cc[nH]c3cn1)CN(c1ncc(C(F)(F)F)cn1)CC2` [Example 1.012], the pIC50 is 6.30 to 7.30. Under `CCc1cccc(CC)c1-n1nc2c(c1-c1cc(F)c(OC)c3[nH]ccc13)CN(c1ncc(C(F)(F)F)cn1)CC2` [Example 1.059] stands above 8.30. Turning to `Cc1cccc(OCC(C)C)c1-n1nc2c(c1-c1ccc3[nH]nc(C)c3c1)CN(c1ncc(C(F)(F)F)cc1F)CC2` [Example 1.215], the pIC50 was below 6.30.

With `CCc1cccc(CC)c1-n1nc2c(c1-c1ccc3[nH]c(C)nc3c1Cl)CN(c1ncc(C(F)(F)F)cn1)CC2` [Example 1.037], the pIC50 was 7.30 to 8.30. Under `CCc1cccc(CC)c1-n1nc2c(c1-c1ccc(Cl)c3[nH]ccc13)CN(c1cnccn1)CC2` [Example 1.057] stands above 8.30; under `Cc1cccc(C)c1-n1nc2c(c1-c1ccc3[nH]ccc3c1)CN(CC(C)(C)C)CC2` [Example 1.239], 7.30 to 8.30.

In the case of `CCc1cccc(CC)c1-n1nc2c(c1-c1ccc3[nH]cnc3c1)CN(c1ncc(C(F)(F)F)cn1)CC2` [Example 1.017], the pIC50 is below 6.30. Consider `CCc1cccc(CC)c1-n1nc2c(c1-c1ccc(F)c3[nH]ccc13)CN(c1ncc(C3CC3)cc1F)CC2` [Example 1.175], for which the pIC50 was above 8.30.

`CCc1cccc(CC)c1-n1nc2c(c1-c1ccc(Cl)c3[nH]ccc13)CN(c1ncc(C(C)(C)O)cn1)CC2` [Example 1.074]: the pIC50 is above 8.30. To `CCc1cccc(CC)c1-n1nc2c(c1-c1ccc3[nH]ccc3c1)CN(c1ncc(C(F)(F)F)cc1F)CC2` [Example 1.082] belongs 7.30 to 8.30. As for `CCc1cccc(CC)c1-n1nc2c(c1-c1ccc(Cl)c3[nH]ccc13)CN(c1nc(C)cc(C)n1)CC2` [Example 1.148], the pIC50 is above 8.30. Turning to `Cc1cccc(OCC(C)C)c1-n1nc2c(c1-c1ccc3[nH]ccc3c1)CN(c1ncc(Cl)cc1Cl)CC2` [Example 1.200], the pIC50 is above 8.30. As for `CCc1cccc(CC)c1-n1nc2c(c1-c1ccc(Cl)c3[nH]ccc13)CN(c1ccc(OC(F)(F)F)cn1)CC2` [Example 1.086], the pIC50 was above 8.30. To `CCc1cccc(CC)c1-n1nc2c(c1-c1ccc(C(=O)N(C)C)c3[nH]ccc13)CN(c1ncc(C(F)(F)F)cn1)CC2` [Example 1.047] belongs 6.30 to 7.30; to `CCc1cccc(CC)c1-n1nc2c(c1-c1cccc3[nH]cnc13)CN(c1ncc(C(F)(F)F)cn1)CC2` [Example 1.043], 7.30 to 8.30.

Consider `CCc1cccc(CC)c1-n1nc2c(c1-c1ccc(F)c3[nH]ccc13)CN(c1ncc(Cl)cn1)CC2` [Example 1.184], for which the pIC50 was above 8.30.

On to `Cc1cccc(C)c1-n1nc2c(c1-c1ccc(Cl)c3[nH]ccc13)CN(c1ncc(C(C)C)cc1F)CC2` [Example 1.153], for which the pIC50 was 7.30 to 8.30. To `CCc1cccc(CC)c1-n1nc2c(c1-c1c(F)cc(CO)c3[nH]ccc13)CN(c1ccc(C(F)(F)F)cn1)CC2` [Example 1.100] belongs above 8.30; to `CCc1cccc(CC)c1-n1nc2c(c1-c1cc(F)c(CO)c3[nH]ccc13)CN(c1ncc(C(F)(F)F)cc1F)CC2` [Example 1.078], above 8.30. Under `Cc1cccc(C)c1-n1nc2c(c1-c1cc(F)c(C)c3[nH]ccc13)CN(c1ncc(C(F)(F)F)cn1)CC2` [Example 1.102] stands 7.30 to 8.30; under `CCc1cccc(CC)c1-n1nc2c(c1-c1cc(F)c(OC)c3[nH]ccc13)C(=O)N(c1ncc(C(F)(F)F)cn1)CC2` [Example 1.033], 6.30 to 7.30.

In the case of `CCc1cccc(CC)c1-n1nc2c(c1-c1c(F)cc(Cl)c3[nH]ccc13)CN(c1ncc(C(F)(F)F)cn1)CC2` [Example 1.137], the pIC50 is above 8.30.

Turning to `CCc1cccc(CC)c1-n1nc2c(c1-c1nccc3[nH]ccc13)CN(c1ncc(C(F)(F)F)cn1)CC2` [Example 1.031], the pIC50 is 7.30 to 8.30.

Take `CCc1cccc(CC)c1-n1nc2c(c1-c1ccc(Cl)c3[nH]ccc13)CN(c1cnc(C(F)(F)F)cn1)CC2` [Example 1.058]: the pIC50 was above 8.30. `Cc1cccc(C)c1-n1nc2c(c1-c1cc(F)c(C)c3[nH]ccc13)CN(c1ncc(C(F)(F)F)cc1F)CC2` [Example 1.103]: the pIC50 is 7.30 to 8.30.

The record behind these values is patent US11384079B2, “6-5 fused rings as C5a inhibitors” (CHEMOCENTRYX, INC., priority 2017, dated 2022).
